Here are results for three molecules from patent publication US9937234B2, “Compositions and methods for using and identifying antimicrobial agents” (priority 2013, dated 2018).

The experiment concerns B. anthracis Sterne strain ΔftsX. The experiment is classed as cell-based, Bacillus anthracis.

As for human CXCL9, the “susceptibility of ΔftsX” value is “resistant”.
Turning to human CXCL10, the “susceptibility of ΔftsX exponential and stationary phase organisms” value is given as “both resistant”; the “susceptibility of ΔftsX to CXCL10-mediated killing” value was “resistance”.

B1: human CXCL11 (protein, listed as Homo sapiens)
chain: QGFPMFKRGRCLCIGPGVKAVKVADIEKASIMYPSNNCDKIEVIITLKENKGQRCLNPKSKQARLIIKKVERKNF
As to B1, the “susceptibility of ΔftsX” value was “resistant”.
